Details: Brillouin light scattering

CCC(C)(C)OC [2-methoxy-2-methylbutane]
Details	speed of sound [m/s]
443.15 K, 2500 kPa, Liquid	537.57
443.15 K, 4000 kPa, Liquid	561.49
443.15 K, 5500 kPa, Liquid	584.45
443.15 K, 7000 kPa, Liquid	606.46
443.15 K, 8500 kPa, Liquid	627.51
443.15 K, 10000 kPa, Liquid	647.61
453.15 K, 660 kPa, Liquid	468.81
453.15 K, 2500 kPa, Liquid	495.6
453.15 K, 4000 kPa, Liquid	520.74
453.15 K, 5500 kPa, Liquid	544.94
453.15 K, 7000 kPa, Liquid	568.2
453.15 K, 8500 kPa, Liquid	590.53
453.15 K, 10000 kPa, Liquid	611.92
463.15 K, 820 kPa, Gas	194.03
463.15 K, 820 kPa, Liquid	424.99
463.15 K, 2500 kPa, Liquid	453.48
463.15 K, 4000 kPa, Liquid	479.86
463.15 K, 5500 kPa, Liquid	505.34
463.15 K, 7000 kPa, Liquid	529.91
463.15 K, 8500 kPa, Liquid	553.58
463.15 K, 10000 kPa, Liquid	576.34
473.15 K, 1010 kPa, Gas	187.27
473.15 K, 1010 kPa, Liquid	380.39
473.15 K, 4000 kPa, Liquid	438.87
473.15 K, 5500 kPa, Liquid	465.66
473.15 K, 7000 kPa, Liquid	491.59
473.15 K, 8500 kPa, Liquid	516.66
473.15 K, 10000 kPa, Liquid	540.87
483.15 K, 1240 kPa, Gas	179.96
483.15 K, 1240 kPa, Liquid	334.95
483.15 K, 4000 kPa, Liquid	397.75
483.15 K, 5500 kPa, Liquid	425.9
488.15 K, 1370 kPa, Gas	175.42
488.15 K, 1370 kPa, Liquid	311.9
493.15 K, 1520 kPa, Gas	169.9
493.15 K, 1520 kPa, Liquid	288.63
493.15 K, 4000 kPa, Liquid	356.51
493.15 K, 5500 kPa, Liquid	386.06
498.15 K, 1680 kPa, Gas	163.13
498.15 K, 1680 kPa, Liquid	265.12
498.15 K, 4000 kPa, Liquid	335.85
498.15 K, 5500 kPa, Liquid	366.12
503.15 K, 1860 kPa, Gas	154.8
503.15 K, 1860 kPa, Liquid	241.38
503.15 K, 4000 kPa, Liquid	315.16
503.15 K, 5500 kPa, Liquid	346.15
508.15 K, 2060 kPa, Gas	144.62
508.15 K, 2060 kPa, Liquid	217.4
508.15 K, 4000 kPa, Liquid	294.43
508.15 K, 5500 kPa, Liquid	326.16
513.15 K, 2270 kPa, Gas	132.28
513.15 K, 2270 kPa, Liquid	193.18
513.15 K, 4000 kPa, Liquid	273.68
513.15 K, 5500 kPa, Liquid	306.15
518.15 K, 2500 kPa, Gas	117.47
518.15 K, 2500 kPa, Liquid	168.7
518.15 K, 4000 kPa, Liquid	252.89
518.15 K, 5500 kPa, Liquid	286.12
523.15 K, 2760 kPa, Gas	99.85
523.15 K, 2760 kPa, Liquid	143.98
523.15 K, 4000 kPa, Liquid	232.08
523.15 K, 5500 kPa, Liquid	266.07
537.15 K, 5000 kPa, Fluid (supercritical or subcritical phases)	228.75
537.15 K, 6000 kPa, Fluid (supercritical or subcritical phases)	279.45
538.63 K, 4000 kPa, Fluid (supercritical or subcritical phases)	166.74
540.07 K, 7000 kPa, Fluid (supercritical or subcritical phases)	308.01
547.15 K, 5000 kPa, Fluid (supercritical or subcritical phases)	173.14
547.15 K, 6000 kPa, Fluid (supercritical or subcritical phases)	231.15
548.05 K, 7000 kPa, Fluid (supercritical or subcritical phases)	273.71
548.23 K, 4000 kPa, Fluid (supercritical or subcritical phases)	93.78
557.15 K, 5000 kPa, Fluid (supercritical or subcritical phases)	137.45
557.15 K, 6000 kPa, Fluid (supercritical or subcritical phases)	185.53
557.95 K, 4000 kPa, Fluid (supercritical or subcritical phases)	114.59
558.89 K, 7000 kPa, Fluid (supercritical or subcritical phases)	235.39
567.15 K, 5000 kPa, Fluid (supercritical or subcritical phases)	122.01
567.15 K, 6000 kPa, Fluid (supercritical or subcritical phases)	152.32
567.35 K, 4000 kPa, Fluid (supercritical or subcritical phases)	139.87
568.4 K, 7000 kPa, Fluid (supercritical or subcritical phases)	200.04
577 K, 5000 kPa, Fluid (supercritical or subcritical phases)	139.01
577 K, 6000 kPa, Fluid (supercritical or subcritical phases)	140.84
577.42 K, 7000 kPa, Fluid (supercritical or subcritical phases)	176.29
577.5 K, 4000 kPa, Fluid (supercritical or subcritical phases)	156.64
586.07 K, 7000 kPa, Fluid (supercritical or subcritical phases)	158.23
586.09 K, 6000 kPa, Fluid (supercritical or subcritical phases)	146.23
586.58 K, 4000 kPa, Fluid (supercritical or subcritical phases)	172.49
586.8 K, 5000 kPa, Fluid (supercritical or subcritical phases)	155.55
597.62 K, 7000 kPa, Fluid (supercritical or subcritical phases)	156.64
598.22 K, 6000 kPa, Fluid (supercritical or subcritical phases)	159.43
599.01 K, 5000 kPa, Fluid (supercritical or subcritical phases)	172.16
599.67 K, 4000 kPa, Fluid (supercritical or subcritical phases)	188.97
607.67 K, 7000 kPa, Fluid (supercritical or subcritical phases)	165.36
608.42 K, 6000 kPa, Fluid (supercritical or subcritical phases)	174.49
609.14 K, 5000 kPa, Fluid (supercritical or subcritical phases)	187.44
610.53 K, 4000 kPa, Fluid (supercritical or subcritical phases)	204.31
616.46 K, 7000 kPa, Fluid (supercritical or subcritical phases)	175.98
617.13 K, 6000 kPa, Fluid (supercritical or subcritical phases)	187.48
618.08 K, 5000 kPa, Fluid (supercritical or subcritical phases)	199.99
618.29 K, 4000 kPa, Fluid (supercritical or subcritical phases)	213.66
626.75 K, 7000 kPa, Fluid (supercritical or subcritical phases)	188.95
627.35 K, 6000 kPa, Fluid (supercritical or subcritical phases)	199.55
628.15 K, 5000 kPa, Fluid (supercritical or subcritical phases)	210.83
629.14 K, 4000 kPa, Fluid (supercritical or subcritical phases)	222.93
636.88 K, 6000 kPa, Fluid (supercritical or subcritical phases)	207.42
636.88 K, 7000 kPa, Fluid (supercritical or subcritical phases)	199.92
638.41 K, 5000 kPa, Fluid (supercritical or subcritical phases)	218.7
639.77 K, 4000 kPa, Fluid (supercritical or subcritical phases)	229.85
645.57 K, 5000 kPa, Fluid (supercritical or subcritical phases)	222.56
645.57 K, 6000 kPa, Fluid (supercritical or subcritical phases)	213.28
645.57 K, 7000 kPa, Fluid (supercritical or subcritical phases)	204.49
646.51 K, 4000 kPa, Fluid (supercritical or subcritical phases)	233.5
656.29 K, 5000 kPa, Fluid (supercritical or subcritical phases)	226.62
656.29 K, 7000 kPa, Fluid (supercritical or subcritical phases)	208.95
656.31 K, 6000 kPa, Fluid (supercritical or subcritical phases)	217.14
657.59 K, 4000 kPa, Fluid (supercritical or subcritical phases)	237.14
669.94 K, 5000 kPa, Fluid (supercritical or subcritical phases)	230.37
669.94 K, 7000 kPa, Fluid (supercritical or subcritical phases)	211.48
669.98 K, 6000 kPa, Fluid (supercritical or subcritical phases)	220.01
670.97 K, 4000 kPa, Fluid (supercritical or subcritical phases)	240.91
680.25 K, 5000 kPa, Fluid (supercritical or subcritical phases)	233.53
680.27 K, 4000 kPa, Fluid (supercritical or subcritical phases)	242.88
680.27 K, 7000 kPa, Fluid (supercritical or subcritical phases)	215.49
680.32 K, 6000 kPa, Fluid (supercritical or subcritical phases)	223.86
